Data published in patent publication US20250034194A1, “INHIBITORS OF ABNORMAL PHOSPHORYLATION AND TAU PROTEIN AGGREGATION” (UNIVERSITE DE PICARDIE JULES VERNE, priority 2021, published 2025).

Experiments:
[1] = molecular target: T1, tau protein (4R2N isoform, 441 amino acids) (Homo sapiens, UniProt P10636); test: Induction of tau protein aggregation, Thioflavin T incorporation; type: biochemical; conditions: tau 0.71 mg/mL, compound 0.175 mg/mL (mass ratio 4/1); up to 72 h
T1 construct: purchased Tebu-bio (custom synthesized)
T1 sequence (P10636 1-441 isoform P10636-8): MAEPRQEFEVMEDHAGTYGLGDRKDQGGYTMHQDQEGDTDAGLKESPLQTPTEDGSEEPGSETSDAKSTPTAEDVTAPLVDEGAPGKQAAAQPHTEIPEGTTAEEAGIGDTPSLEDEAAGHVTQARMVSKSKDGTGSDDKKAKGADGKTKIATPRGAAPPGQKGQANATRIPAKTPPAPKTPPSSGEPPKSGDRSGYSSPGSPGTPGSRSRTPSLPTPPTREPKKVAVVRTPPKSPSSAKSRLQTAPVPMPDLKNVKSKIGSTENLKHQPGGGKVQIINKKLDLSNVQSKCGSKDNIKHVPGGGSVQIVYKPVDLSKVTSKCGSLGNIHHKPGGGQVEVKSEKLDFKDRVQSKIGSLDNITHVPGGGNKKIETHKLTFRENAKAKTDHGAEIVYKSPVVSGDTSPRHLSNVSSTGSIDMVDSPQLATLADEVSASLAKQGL
Method: The ability of the 16-carbon disulphated maltobionamide compound “Mal16diS” to induce tau protein aggregation, another step in the occurrence of neurofibrillary tangles, was evaluated. Thus, the ability of this molecule to induce or inhibit the aggregation of tau in vitro (FIG. 10) was evaluated in a test described in the article by Sui et al, 2015 in which tau aggregation is monitored by the incorporation of Thioflavin T (ThT). […]
100 μL of ThT (Sigma-Aldrich) at 50 μM is immediately added to each well, then the plate is incubated at 37° C. with stirring. Monitoring the formation of tau protein aggregates is possible by monitoring the incorporation of thioflavin leading to its fluorescence emission and is carried out by reading at 0, 24, 40, 48 and 71 h at Exc wavelength 450 nm/Em wavelength 510 nm, by means of an Infinite M1000 spectrofluorometer (Tecan).

[2] = system: tau phosphorylation (S262 site) in SH-SY5Y cells; test: In cellulo tau phosphorylation test in the SH-SY5Y line (H2O2 stress induction); type: cell-based; conditions: 24 hours, then H2O2
Method: The tau phosphorylation induction model on the SH-SY5Y cell line described in the Gly-CRRET laboratory article was used here (Sepulveda-Diaz et al., 2015).
In short, SH-SY5Y cells are seeded in 6-well plates and differentiated using retinoic acid (10 μM, Sigma Aldrich) for 5 days. On day 6, the cells are placed in the presence of the Mal16diS and Mal18diS molecules at different concentrations (1, 10 or 100 μg/mL), in a final volume of 2 mL simultaneously with a well not receiving molecules. After 24 hours, the molecules are removed and the stress inducer (H2O2, Sigma Aldrich) is added to the cell medium for 30 minutes. The cells are then rinsed with 1×PBS then lysed and recovered in RIPA buffer (Thermo Fisher). The protein extracts from the cells (10 μg) are then analysed by western blot according to the same procedure described above.
The tau phosphorylation site studied here is the S262 site (Thermo Fisher), normalized to the expression of the GAPDH protein (Sigma Aldrich). The bands are quantified using the Odyssey software of the LI-COR device allowing the p-tau/GAPDH ratio to be calculated for each of the conditions. The ratio obtained for each concentration of molecule is then expressed as a percentage of the ratio obtained for the control cells, i.e., not treated by the molecules. Thus a value less than 100% corresponds to protection provided by the molecules in this cellular model of tau phosphorylation induction.
The experiment was repeated at least 4 times for each molecule dose for the “Mal16diS” and “Mal18diS” molecules and at least twice for the “Cell16diS” and “Lac16diS” molecules. The mean and standard deviation of the replicates are shown in FIGS. 13 to 16; each of the values obtained for each dose is compared to that of the control without addition of molecule by means of a t-test. Statistical differences with p-value <0.05 and <0.001 are represented by “*” and “***” respectively.

[3] = system: tau phosphorylation (S262 site) in cortical cells of rTg4510 mice (human tau P301L); test: In cellulo tau phosphorylation test in cortical cells of rTg4510 mice; type: cell-based; conditions: 24 h
Excerpt: Cortical cells from rTg4510 mice mutated for human tau protein (P301 L) were used as a model of primary cells expressing a tauopathy without induction by an effector, unlike the previous cellular model (Santa Cruz et al., Science, 2005).
Cortical cells are extracted from mouse embryos expressing the P301L mutation at stage E16 and cultured in a 6-well plate. On day 14 (moderate tau phosphorylation) or day 18 (severe tau phosphorylation), cells extracted from the same embryo are placed in the presence of the Mal16diS molecule at different concentrations (0.1 or 1 μg/mL), in a final volume of 2 mL simultaneously with a well of cells from the same embryo not receiving molecules for 24 h. After 24 h of treatment with the molecules, the cells are rinsed with 1×PBS then lysed and recovered in RIPA buffer (Thermo Fischer). The protein extracts from the cells (10 μg) are then analysed by western blot according to the same procedure described above.
The tau phosphorylation site studied here is the S262 site (Thermo Fisher), normalized to the expression of total tau protein (K9JA, Dako). The bands are quantified using the Odyssey software of the LI-COR device allowing the p-tau/tau ratio to be calculated for each of the conditions. The ratio obtained for each concentration of molecule is then expressed as a percentage of the ratio obtained for cells not treated by the molecules. Thus a value less than 100% corresponds to protection provided by the molecules in this cellular model of expression of tau phosphorylation. The experiment was repeated at least three times for each dose of “Mal16diS” molecule. The mean and standard deviation of the replicates are shown in FIGS. 17 and 18; each of the values obtained for each dose is compared to that of the cells without addition of the molecule, with a t-test. Statistical differences with p-value <0.01 and <0.001 are represented by “**” and “***” respectively.

Compound: CCCCCCCCCCCCCCCCNC(=O)[C@H](O)[C@@H](O)[C@H](O[C@H]1OC(COS(=O)(=O)[O-])[C@@H](O)C(O)[C@@H]1O)[C@H](O)COS(=O)(=O)[O-].[Na+].[Na+] (stereo partly drawn) [Mal16diS, N-Hexadecyl-6,6′-Di-O-Sulfo-D-Maltobioamide Disodium]
- induction of tau protein aggregation (Thioflavin-T) [1]: induces the aggregation of tau protein more weakly compared to heparin
- reduction in tau phosphorylation (S262, p-tau/GAPDH) compared to untreated cells ([2]; 1 μg/mL): 30%
- reduction in tau phosphorylation (S262, p-tau/GAPDH) compared to untreated cells ([2]; 10 μg/mL): 40%
- reduction in tau phosphorylation (S262, p-tau/tau) compared to untreated cells ([3]; moderate phosphorylation (D14), 0.1 μg/mL): 48%
- reduction in tau phosphorylation (S262, p-tau/tau) compared to untreated cells ([3]; moderate phosphorylation (D14), 1 μg/mL): 64%
- reduction in tau phosphorylation (S262, p-tau/tau) compared to untreated cells ([3]; severe phosphorylation (D18), 0.1 μg/mL): 39%
- reduction in tau phosphorylation (S262, p-tau/tau) compared to untreated cells ([3]; severe phosphorylation (D18), 1 μg/mL): 53%
